Earlier results, collected in patent US20040009537A1, “Methods of modulating and of identifying agents that modulate intracellular calcium” (priority 2002, published 2004).

Tested on: HeLa cells
Conditions: HeLa cells treated with histamine; decrease from about 60-400 μM

**Q.** With `NCCc1c[nH]cn1` [histamine] as the molecule, how does the ER free calcium read?
**A.** 1 to 50 µM
